Reference: patent US9353088B2, “Crystalline pharmaceutical and methods of preparation and use thereof” (SARcode Bioscience Inc., priority 2009, dated 2016)

Test system: tester strains
Assay: In vitro Ames bacterial reverse mutation assay
Format: cell-based
Details: presence or absence of microsomal (S9) enzymes
Description: Therefore, the compound of Formula I was judged to be not mutagenic.

Question: For `CS(=O)(=O)c1cccc(C[C@H](NC(=O)c2c(Cl)cc3c(c2Cl)CCN(C(=O)c2ccc4ccoc4c2)C3)C(=O)O)c1` [Compound of Formula I], which mutagenicity is on record?
Answer: Its mutagenicity is “not mutagenic”.
